What all share (assay type): cell-based, rat
For assay [1], the system named is E14.5 ventral mesencephalic (VM) cultures. The assay can be described thus: Proliferating clusters containing TH+ neurons in VM cultures. The note with it: 10 units, 7 days in vitro. On the procedure:
Ventral mesencephala and cerebral cortices from embryos E13.5-14.5 obtained from timed-mated Sprague-Dawley rats were dissected, mechanically dissociated and plated at a final density of 1×10^5 cells/cm2 on poly-D-lysine coated 12- or 24-well plates in a defined, serum-free medium (N2, consisting of a 1:1 mixture of F12 and DMEM containing insulin (10 ng/ml), transferrin (100 μg/ml), putrescine (100 μM), progesterone (20 nM), selenium (30 nM), glucose (6 mg/ml), and bovine serum albumin (1 mg/ml)). Purified Type 1 astrocytes were obtained from mixed glial cultures derived from the VM or CTX of P1 rats according to a standard protocol (Wagner et al., 1999). After shaking and replating into 12-well plates, astrocytes were grown to confluency in 15% fetal bovine serum-containing media and changed to N2 medium, at which time freshly dissected VM or CTX cells were plated on top of the astrocytes at a density of 1×10^5 cells/cm2. […]
Only clearly stained cells were counted as positive cells. […] Quantitative immunocytochemical data on individual cells represent means and standard errors of counts obtained by a blinded observer from 10-20 non-overlapping fields (cells) or in the entire well (clusters), in each of 3-4 wells per condition from 3-4 independent experiments, unless stated otherwise. […]

Assay [2] has as its system ventral mesencephalic Nurr1+ neuronal precursors. The assay can be described thus: Conversion of VM Nurr1+ precursors into Nurr1+/TH+ dopaminergic neurons (double immunostaining). The note with it: VM cultures; control approximately 50%. On the procedure:
(§1) Ventral mesencephala and cerebral cortices from embryos E13.5-14.5 obtained from timed-mated Sprague-Dawley rats were dissected, mechanically dissociated and plated at a final density of 1×10^5 cells/cm2 on poly-D-lysine coated 12- or 24-well plates in a defined, serum-free medium (N2, consisting of a 1:1 mixture of F12 and DMEM containing insulin (10 ng/ml), transferrin (100 μg/ml), putrescine (100 μM), progesterone (20 nM), selenium (30 nM), glucose (6 mg/ml), and bovine serum albumin (1 mg/ml)). Purified Type 1 astrocytes were obtained from mixed glial cultures derived from the VM or CTX of P1 rats according to a standard protocol (Wagner et al., 1999). After shaking and replating into 12-well plates, astrocytes were grown to confluency in 15% fetal bovine serum-containing media and changed to N2 medium, at which time freshly dissected VM or CTX cells were plated on top of the astrocytes at a density of 1×10^5 cells/cm2. All factors were added once, at the initiation of culture, with the exception of 5-bromodeoxyuridine (BrdU), which was added 4-6 hours prior to fixation. Cultures were maintained in a humidified 5% CO2, 95% air incubator at 37° C. and fixed after given time periods with 4% paraformaldehyde for 45 minutes prior to immunocytochemical analysis.
(§2) B1A fibroblast lines were cotransfected with the mFz8CRD-IgG/pRK5 and the pIRES puro 2 (Clontech, BD Bioscience, Erembodegem, Belgium) plasmids, using Lipofectamine Plus reagent (Invitrogen, Lidingo, Sweden) according to the instruction of the manufacturer. Upon selection for puromycin resistance (1 μg/ml Sigma, Stockholm, Sweden), clones were isolated and expanded. A clone overexpressing Fz8CRD 700× (real time RT-PCR analysis) was identified. Harvesting and partial purification of Fz8CRD conditioned media were performed as described previously. In all the blocking experiments performed, the Fz8CRD and B1A control partial purified conditioned medias were used at a final concentration of 125-250 μg/ml. […]
Only clearly stained cells were counted as positive cells. […]

For assay [3], the system named is VM cultures. Briefly: TuJ1+ neurons and proliferating clusters, proportion dopaminergic, in VM cultures. On the procedure:
as §1
(§3) Fixed cultures were incubated with one of the following antibodies, diluted appropriately in phosphate-buffered saline (PBS) containing 1% bovine serum albumin and 0.3% Triton-X 100: mouse anti-BrdU, 1:50 (DAKO, Denmark), mouse anti-β-tubulin, Type III (TuJ1), 1:250 (Sigma), mouse anti-TH, 1:1000 (Incstar, USA), rabbit anti-TH, 1:250 (PelFreeze); rabbit anti-Nurr1, 1:2000 (gift from Dr. T. Perlmann, Sweden), rabbit anti-Nurr1, 1:1000 (Santa Cruz, USA) or mouse anti-Nurr1, 1:250 (BD Transduction Laboratories, USA), rabbit anti Adh2 1:4000 (gift from Dr. R. Lindahl, South Carolina). Incubations were either carried out at 4° C. overnight, or at room temperature for 1 hour. Both processes yielded similar results. After washing, cultures were incubated for 1-3 hr with appropriate secondary antibodies (biotinylated 1:500; CY2-, FITC-, or rhodamine-coupled horse-anti-mouse IgG 1:100; or goat-anti-rabbit IgG 1:100; all from Vector, USA), in the same dilution buffer. Brightfield immunostaining was visualized with the Vector Laboratory ABC immunoperoxidase kit, using either NovaRed (red), or AEC (red), SG or 3-3′ dimaminobenzidine tetrahydrochloride (DAB 0.5 mg/ml)/nickel chloride (1.6 mg/ml) (gray/black), or VIP (violet) substrates. Double-staining was performed by sequential single staining as described. The order of staining was only critical for BrdU-double labeling, in which case the BrdU procedure was always performed second. […] Photos were acquired with a Zeiss Axioplan 100M microscope and collected with a Hamamatsu camera C4742-95 (with the QED imaging software).
(§4) Only clearly stained cells were counted as positive cells. Spheres were considered positive if they contained one or more positive cell. Quantitative immunocytochemical data on individual cells represent means and standard errors of counts obtained by a blinded observer from 10-20 non-overlapping fields (cells) or in the entire well (clusters), in each of 3-4 wells per condition from 3-4 independent experiments, unless stated otherwise. For each variable, initial statistical comparisons were performed by a global ANOVA, with multiple factors of dose, time point, treatment and/or region; if significant interactions between treatment and any other variable existed, data were further divided into separate times, doses or regions. Fisher's protected least significant difference was used post hoc to identify specific points at which the treatments differed from controls (or each other) only when significant interactions between factor treatment and other variables occurred. Significance for all tests was assumed at the level of p<0.05. […]

The test system of assay [4] is E14.5 ventral mesencephalic precursor cultures. Briefly: Number of TH+ neurons in E14.5 ventral mesencephalic precursor cultures. The note with it: increasing concentrations of partially purified Wnt, 3 days. On the procedure: as §1
B1A fibroblast lines stably overexpressing hemagglutanin-tagged Wnt-1a, 3a, or 5a (Shimizu H., 1997) were grown in standard complete media (DMEM+10% FBS) supplemented with 100 ug/ml G-418. For collection of conditioned media, cells were replated at low density in complete media and allowed to reach 50-75% confluency, at which point cells were washed and media was replaced with serum-free N2 (with 10 μM sodium butyrate) for 24 hours. Conditioned media from sister flasks was then harvested, pooled as lots and stored at −80° C. for up to 2 months. When compared to fresh CM, no loss of activity was observed when using this collection and storage routine. T1A CM was harvested using a similar procedure, with the exception that media was collected after 3 days in vitro.
For concentration, individual lots of CM were thawed at room temperature, divided into 80 ml aliquots, loaded onto Centricon-Plus 80 columns (Millipore) and concentrated via centrifugation according to the manufacturers instructions. Following concentration, aliquots were re-pooled and frozen at −80 C after a sample was taken for determination of protein content and Western blot analysis. In brief, 20 ug of protein was loaded onto a 10% polyacrylamide mini-gel and run under denaturing conditions at 150 V for approximately 30 minutes. After dry electroblot transfer onto PVDF membranes (Hybond P, Amersham Pharmacia Biotech, Upsalla, Sweden) and pre-incubation for 30 minutes in a blocking buffer consisting of 3% bovine serum albumin in Tris-Buffered Saline with […] Triton-X 100 (TBST), blots were incubated with mouse anti-hemagglutinin (Babco) diluted 1:1000 in TBST overnight at 4 C. After washing, blots were incubated with alkaline phosphatase-coupled goat anti-mouse IgG (Santa Cruz) diluted 1:1000 in TBST for 1 hour at room temperature. Blots were visualized using the Amersham ECF reagent and blue fluorescence quantitated using a Molecular Devices Storm 840 phosphoimager.
as §2

For assay [5], the system named is E13.5 primary cultures from the cerebral cortex. The assay can be described thus: Induction of TH in Nurr1+ E13.5 cerebral cortex primary cultures. The following applies: Wnt ligands or co-culture with P1 astrocytes. On the procedure: as §1, §3
Only clearly stained cells were counted as positive cells. Spheres were considered positive if they contained one or more positive cell. Quantitative immunocytochemical data on individual cells represent means and standard errors of counts obtained by a blinded observer from 10-20 non-overlapping fields (cells) or in the entire well (clusters), in each of 3-4 wells per condition from 3-4 independent experiments, unless stated otherwise. […]

The test system of assay [6] is VM precursor cultures / Nurr1+ precursor cells. Briefly: BrdU incorporation (proliferation) in VM precursor cultures. On the procedure:
as §1, §3, §4

Regarding Wnt-3a, in assay [1], the “increase in the number of clusters containing one or more TH+ neurons” value is “not”. The “proportion of Nurr1 positive cells that expressed TH (Nurr1+/TH+)” value in assay [2] was 30%. The “proportion of VM clusters containing dopaminergic neurons” value in assay [3] (FIG. 3e) is given as “less than 10%”. Moreover, in assay [3] (FIG. 3f), the “total number of TuJ1+ neurons” value is “did not increase”. Moreover, in assay [3] (FIG. 3g), the “proportion of TH+ (dopaminergic) neurons” value is recorded as “decreased”. In addition, the “TH+ cell numbers” value in assay [4] was “no effect at doses up to 100 units”. The “proportion of Nurr1 positive cortical cells that expressed TH” value in assay [5] was “virtually no Nurr1 positive cortical cells co-expressed TH”. The “increase in Nurr1 and BrdU double positive precursor cells (mitosis in Nurr1+ population)” value in assay [6] (1 day in vitro) worked out at 3 fold. In assay [6] (3 days in vitro), the “BrdU incorporation in VM precursor cultures” value was “increased”.

These data come from patent publication US20090087417A1, “METHODS FOR PROMOTING DOPAMINERGIC NEURONAL DEVELOPMENT BY USING NG4A-SUBFAMILY AND WNT-LIGANDS” (priority 2002, published 2009).
